Source: patent publication US20120283297A1, “OXADIAZOLE SUBSTITUTED INDAZOLE DERIVATIVES FOR USE AS SPHINGOSINE 1-PHOSPHATE 1 (S1P1) RECEPTOR AGONISTS” (GLAXO WELLCOME HOUSE, priority 2009, published 2012)

Target: T1, S1P1 receptor (Homo sapiens, UniProt P21453)
T1 construct: TEV protease site; Gal4-VP16 transcription factor; expressed in transfected cells; host or cells: Tango GPCR-bla U2OS parental cell line (EDG1-bla/U2OS)
Experiment: S1P1 Tango Assay
Format: cell-based
Settings: agonist activity, recombinant EDG1-bla/U2OS cells, beta-lactamase FRET readout
Excerpt: The potencies and efficacies of the compounds of this invention for the S1P1 receptor can be determined by S1P1 Tango assay performed on the human cloned receptor as described herein.
Recombinant EDG1-bla/U2OS cells (contain the human Endothelial Differentiation Gene 1 (EDG1) linked to a TEV protease site and a Gal4-VP16 transcription factor stably integrated into the Tango GPCR-bla U2OS parental cell line) were harvested from growth medium and passaged into assay medium (Invitrogen Freestyle Expression Medium). The cells were starved for 24 hours at 37° C., 5% CO2, harvested and resuspended in assay medium at a density of ˜200,000 cells/ml. All test compounds were dissolved in DMSO at a concentration of 10 mM and were prepared in 100% DMSO to provide 10 point dose response curves. Test compounds prepared by Bravo (Velocity11) were added to wells in columns 2-11 and 13-22; DMSO was added to wells in columns 12 and 23 as unstimulated controls and assay medium was added to wells in columns 1 and 24 as cell-free controls. An S1P1 agonist was added to wells in row 2, columns 2-11 as stimulated controls and test compounds were added to wells in row 2, columns 13-22 and rows 3-15, columns 2-11/13-22 (row 1 and 16 were empty and not used). Compounds in solution were added to the assay plate (Greiner 781090) using an Echo (Labcyte) dose-response program (50 nl/well). The unstimulated and cell-free controls were loaded with 50 nl/well pure DMSO to ensure that the DMSO concentration was constant across the plate for all assays.
50 μl of the cell suspension was added to each well in columns 2-23 of the plate (˜10,000 cells per well). 50 μl of assay medium was added to each well in the cell-free controls (columns 1 and 24). The cells were incubated overnight at 37° C./5% CO2. 10 μl of 6× substrate mixture (LiveBLAzer™-FRET BIG substrate (CCF4-AM) Cat # K1096 from Invitrogen, Inc.) was added to each well using Bravo and the plates incubated at room temperature for 2 h in the dark. The plate was finally read on EnVision for two emission channels (460 nm and 530 nm).
The blue/green emission ratio (460 nm/530 nm) was calculated for each well, by dividing the background-subtracted Blue emission values by the background-subtracted Green emission values. The dose response curve is based on sigmoidal dose-response model. All ratio data was normalized based upon the maximum emission ratio of positive control and minimum emission ratio of negative control (DMSO) on each plate. The intrinsic activity (IA) of each compound would be the normalized percentage of its maximum response after curve fitting.

T1 sequence (P21453 whole entry, the tested form may be a part): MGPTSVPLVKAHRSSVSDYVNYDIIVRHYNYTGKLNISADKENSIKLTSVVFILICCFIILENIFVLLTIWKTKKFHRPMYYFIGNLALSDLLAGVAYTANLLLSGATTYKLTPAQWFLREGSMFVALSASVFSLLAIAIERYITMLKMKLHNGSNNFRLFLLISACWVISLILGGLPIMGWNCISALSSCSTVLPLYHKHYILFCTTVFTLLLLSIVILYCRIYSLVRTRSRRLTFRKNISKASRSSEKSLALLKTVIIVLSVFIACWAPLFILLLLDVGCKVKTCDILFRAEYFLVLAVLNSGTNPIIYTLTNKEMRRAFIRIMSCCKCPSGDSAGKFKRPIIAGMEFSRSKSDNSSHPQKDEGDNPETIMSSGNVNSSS

Structure (SMILES)	EC50 [nM]
CC(C)Oc1ccc(-c2nc(-c3cccc4c3cnn4CC(O)C(=O)O)no2)cc1Cl (single isomer, unassigned) [Example 9, Lithium 3-[4-(5-{3-chloro-4-[(1-methylethyl)oxy]phenyl}-1,2,4-oxadiazol-3-yl)-1H-indazol-1-yl]-2-hydroxypropanoate]	1 to 10
CC(C)Oc1ccc(-c2nc(-c3ccc4[nH]ncc4c3)no2)cc1Cl [Example 1, 5-(5-{3-Chloro-4-[(1-methylethyl)oxy]phenyl}-1,2,4-oxadiazol-3-yl)-1H-indazole]	≤ 1
CC(C)Oc1ccc(-c2nc(-c3ccc4[nH]ncc4c3)no2)cc1C#N [Example 2, 5-[3-(1H-Indazol-5-yl)-1,2,4-oxadiazol-5-yl]-2-[(1-methylethyl)oxy]benzonitrile]	1 to 10
CC(C)Oc1ccc(-c2nc(-c3cccc4[nH]ncc34)no2)cc1C#N [Example 3, 5-[3-(1H-Indazol-4-yl)-1,2,4-oxadiazol-5-yl]-2-[(1-methylethyl)oxy]benzonitrile]	≤ 1
CC(C)Oc1ccc(-c2nc(-c3cccc4[nH]ncc34)no2)cc1Cl [Example 4, 4-(5-{3-Chloro-4-[(1-methylethyl)oxy]phenyl}-1,2,4-oxadiazol-3-yl)-1H-indazole]	10 to 100
CC(C)Oc1ccc(-c2nc(-c3cccc4c3cnn4CC(C)C(=O)O)no2)cc1Cl (centres unmarked) [Example 5, 3-[4-(5-{3-Chloro-4-[(1-methylethyl)oxy]phenyl}-1,2,4-oxadiazol-3-yl)-1H-indazol-1-yl]-2-methylpropanoic acid]	10 to 100
CC(C)Oc1ccc(-c2nc(-c3cccc4c3cnn4CCCCC(=O)O)no2)cc1Cl [Example 6, 5-[4-(5-{3-Chloro-4-[(1-methylethyl)oxy]phenyl}-1,2,4-oxadiazol-3-yl)-1H-indazol-1-yl]pentanoic acid]	10 to 100
CC(C)Oc1ccc(-c2nc(-c3cccc4c3cnn4C3(CC(=O)O)COC3)no2)cc1Cl [Example 8, {3-[4-(5-{3-Chloro-4-[(1-methylethyl)oxy]phenyl}-1,2,4-oxadiazol-3-yl)-1H-indazol-1-yl]-3-oxetanyl}acetic acid]	10 to 100
CC(C)Oc1ncc(-c2nc(-c3ccc4c(cnn4CCC(=O)O)c3)no2)cc1Cl [Example 10, 3-[5-(5-{5-Chloro-6-[(1-methylethyl)oxy]-3-pyridinyl}-1,2,4-oxadiazol-3-yl)-1H-indazol-1-yl]propanoic acid]	10 to 100
CC(C)Oc1ncc(-c2nc(-c3ccc4[nH]ncc4c3)no2)cc1Cl [Example 11, 5-(5-{5-Chloro-6-[(1-methylethyl)oxy]-3-pyridinyl}-1,2,4-oxadiazol-3-yl)-1H-indazole]	10 to 100
Cc1c(-c2noc(-c3cnc(OC(C)C)c(Cl)c3)n2)ccc2c1cnn2CCCC(=O)O [Example 13, 4-[5-(5-{5-Chloro-6-[(1-methylethyl)oxy]-3-pyridinyl}-1,2,4-oxadiazol-3-yl)-4-methyl-1H-indazol-1-yl]butanoic acid]	1 to 10
CC(C)Oc1ncc(-c2nc(-c3ccc4c(cnn4CCCC(=O)O)c3)no2)cc1C#N [Example 14, 4-[5-(5-{5-Cyano-6-[(1-methylethyl)oxy]-3-pyridinyl}-1,2,4-oxadiazol-3-yl)-1H-indazol-1-yl]butanoic acid]	≤ 1
CC(C)Oc1ncc(-c2nc(-c3cc4cnn(CCCC(=O)O)c4cc3F)no2)cc1Cl [Example 17, 4-[5-(5-{5-Chloro-6-[(1-methylethyl)oxy]-3-pyridinyl}-1,2,4-oxadiazol-3-yl)-6-fluoro-1H-indazol-1-yl]butanoic acid]	10 to 100
CC(C)Oc1ncc(-c2nc(-c3cc4cn[nH]c4cc3Cl)no2)cc1Cl [Example 19, 6-Chloro-5-(5-{5-chloro-6-[(1-methylethyl)oxy]-3-pyridinyl}-1,2,4-oxadiazol-3-yl)-1H-indazole]	1 to 10
